Test results: patent US20220251163A1 (Sinopep-Allsino Biopharmaceutical Co., Ltd., priority 2019, published 2022)
Where a SMILES comes first, the peptide text is derived from it.

Columns and labels:
mGLP-1R = target: T1, mGLP-1R (Mus musculus, UniProt O35659); experiment: GLP-1R agonist activity, cAMP in transfected HEK293 cells; assay type: cell-based; conditions: HEK293 cells transfected with GLP-1R, cAMP, 20 min incubation; read-out: mGLP-1R EC50
T1 construct: expressed in transfected cells; host or cells: HEK293
T1 sequence (O35659 22-463): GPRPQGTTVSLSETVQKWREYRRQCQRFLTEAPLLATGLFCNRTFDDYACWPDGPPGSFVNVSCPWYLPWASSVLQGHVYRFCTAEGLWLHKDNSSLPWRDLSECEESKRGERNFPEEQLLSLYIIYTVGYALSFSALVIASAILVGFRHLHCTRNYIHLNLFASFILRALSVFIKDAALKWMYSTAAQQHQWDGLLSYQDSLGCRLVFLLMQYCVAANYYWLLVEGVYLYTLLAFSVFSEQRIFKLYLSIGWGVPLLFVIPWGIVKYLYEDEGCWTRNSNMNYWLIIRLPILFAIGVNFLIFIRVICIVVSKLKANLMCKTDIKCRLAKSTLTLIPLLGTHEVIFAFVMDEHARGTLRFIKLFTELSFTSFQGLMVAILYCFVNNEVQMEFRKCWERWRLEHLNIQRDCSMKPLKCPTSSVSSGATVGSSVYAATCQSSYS
Experimental: HEK293 cells were co-transfected with cDNA encoding GLP-1R or GIPR. In a test for determining the compound, the cells were inoculated in a 96-well plate 2 h in advance, the polypeptide compound was dissolved with DMSO, and diluted to different multiples with a culture medium containing 0.1% bovine serum albumin and added to the co-transfected cells. After the cells were incubated for 20 min, fluorescence values were determined through microplate reader of an ELISA kit of the Cisbo Company, a standard curve was established to convert the fluorescence values into corresponding cAMP values, and the EC50 value of the compound was calculated through nonlinear regression of Graphpad Prism 5.0 software.

mGIPR = target: T2, mGIPR (Mus musculus, UniProt Q0P543); experiment: GIPR agonist activity, cAMP in transfected HEK293 cells; assay type: cell-based; conditions: HEK293 cells transfected with GIPR, cAMP, 20 min incubation; read-out: mGIPR EC50
T2 construct: expressed in transfected cells; host or cells: HEK293
T2 sequence (Q0P543 19-460): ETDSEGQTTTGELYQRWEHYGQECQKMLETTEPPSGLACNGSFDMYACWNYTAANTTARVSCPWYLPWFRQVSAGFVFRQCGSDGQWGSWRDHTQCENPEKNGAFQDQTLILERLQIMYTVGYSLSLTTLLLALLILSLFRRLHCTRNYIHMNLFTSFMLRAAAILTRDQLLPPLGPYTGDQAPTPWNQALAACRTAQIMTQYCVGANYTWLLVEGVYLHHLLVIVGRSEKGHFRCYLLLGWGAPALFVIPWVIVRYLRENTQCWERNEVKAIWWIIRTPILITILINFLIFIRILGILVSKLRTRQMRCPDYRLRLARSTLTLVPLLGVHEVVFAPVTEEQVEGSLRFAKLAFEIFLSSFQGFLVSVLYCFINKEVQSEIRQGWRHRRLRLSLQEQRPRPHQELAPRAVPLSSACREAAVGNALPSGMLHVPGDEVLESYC
Experimental: HEK293 cells were co-transfected with cDNA encoding GLP-1R or GIPR. In a test for determining the compound, the cells were inoculated in a 96-well plate 2 h in advance, the polypeptide compound was dissolved with DMSO, and diluted to different multiples with a culture medium containing 0.1% bovine serum albumin and added to the co-transfected cells.

SMILES	EC50 (mGLP-1R) [nM]	EC50 (mGIPR) [pM]
CCCCCCCCCCCCCCCC(=O)N[C@@H](CCC(=O)NCCCC[C@H](NC(=O)[C@H](CCC(N)=O)NC(=O)[C@H](C)NC(=O)[C@@H](NC(=O)[C@H](CCCCN)NC(=O)[C@H](CC(=O)O)NC(=O)[C@H](CC(C)C)NC(=O)C(C)(C)NC(=O)[C@@H](NC(=O)[C@H](CO)NC(=O)[C@H](Cc1ccc(O)cc1)NC(=O)[C@H](CC(=O)O)NC(=O)[C@H](CO)NC(=O)[C@@H](NC(=O)[C@H](Cc1ccccc1)NC(=O)[C@@H](NC(=O)CNC(=O)[C@H](CCC(=O)O)NC(=O)[C@H](C)NC(=O)[C@@H](N)Cc1ccc(O)cc1)[C@@H](C)O)[C@@H](C)O)[C@@H](C)CC)[C@@H](C)CC)C(=O)N[C@@H](C)C(=O)N[C@@H](Cc1ccccc1)C(=O)N[C@H](C(=O)N[C@@H](CCC(N)=O)C(=O)N[C@@H](Cc1c[nH]c2ccccc12)C(=O)N[C@@H](CC(C)C)C(=O)N[C@H](C(=O)N[C@@H](C)C(=O)NCC(=O)NCC(=O)N1CCC[C@H]1C(=O)N[C@@H](CO)C(=O)N[C@@H](CO)C(=O)NCC(=O)N[C@@H](C)C(=O)N1CCC[C@H]1C(=O)N1CCC[C@H]1C(=O)N1CCC[C@H]1C(=O)N[C@@H](CO)C(N)=O)[C@@H](C)CC)C(C)C)C(=O)O [ID NO: 16] (HELM PEPTIDE1{Y.A.E.G.T.F.T.S.D.Y.S.I.[Aib].L.D.K.I.A.Q.K.A.F.V.Q.W.L.I.A.G.G.P.S.S.G.A.P.P.P.S.[am]}|PEPTIDE2{[CCCCCCCCCCCCCCCC(=O)[*:2]].[gGlu]}$PEPTIDE1,PEPTIDE2,20:R3-2:R2$$$V2.0)	0.0425	9.65
CCCCCCCCCCCCCCCC(=O)N[C@@H](CCC(=O)NCCCC[C@H](NC(=O)[C@H](CCC(N)=O)NC(=O)[C@H](C)NC(=O)[C@@H](NC(=O)[C@H](CCCCN)NC(=O)[C@H](CC(=O)O)NC(=O)[C@H](CC(C)C)NC(=O)[C@H](C)NC(=O)[C@@H](NC(=O)[C@H](CO)NC(=O)[C@H](Cc1ccc(O)cc1)NC(=O)[C@H](CC(=O)O)NC(=O)[C@H](CO)NC(=O)[C@@H](NC(=O)[C@H](Cc1ccccc1)NC(=O)[C@@H](NC(=O)CNC(=O)[C@H](CCC(=O)O)NC(=O)C(C)(C)NC(=O)[C@@H](N)Cc1ccc(O)cc1)[C@@H](C)O)[C@@H](C)O)[C@@H](C)CC)[C@@H](C)CC)C(=O)N[C@@H](C)C(=O)N[C@@H](Cc1ccccc1)C(=O)N[C@H](C(=O)N[C@@H](CCC(N)=O)C(=O)N[C@@H](Cc1c[nH]c2ccccc12)C(=O)N[C@@H](CC(C)C)C(=O)N[C@H](C(=O)N[C@@H](C)C(=O)NCC(=O)NCC(=O)N1CCC[C@H]1C(=O)N[C@@H](CO)C(=O)N[C@@H](CO)C(=O)NCC(=O)N[C@@H](C)C(=O)N1CCC[C@H]1C(=O)N1CCC[C@H]1C(=O)N1CCC[C@H]1C(=O)N[C@@H](CO)C(N)=O)[C@@H](C)CC)C(C)C)C(=O)O [ID NO: 17] (HELM PEPTIDE1{Y.[Aib].E.G.T.F.T.S.D.Y.S.I.A.L.D.K.I.A.Q.K.A.F.V.Q.W.L.I.A.G.G.P.S.S.G.A.P.P.P.S.[am]}|PEPTIDE2{[CCCCCCCCCCCCCCCC(=O)[*:2]].[gGlu]}$PEPTIDE1,PEPTIDE2,20:R3-2:R2$$$V2.0)	0.0454	9.72
CCCCCCCCCCCCCCCC(=O)N[C@@H](CCC(=O)NCCCC[C@H](NC(=O)[C@H](CCC(N)=O)NC(=O)[C@H](C)NC(=O)[C@@H](NC(=O)[C@H](CCCCN)NC(=O)[C@H](CC(=O)O)NC(=O)[C@H](CC(C)C)NC(=O)C(C)(C)NC(=O)[C@@H](NC(=O)[C@H](CO)NC(=O)[C@H](Cc1ccc(O)cc1)NC(=O)[C@H](CC(=O)O)NC(=O)[C@H](CO)NC(=O)[C@@H](NC(=O)[C@H](Cc1ccccc1)NC(=O)[C@@H](NC(=O)CNC(=O)[C@H](CCC(=O)O)NC(=O)C1(NC(=O)[C@@H](N)Cc2ccc(O)cc2)CCC1)[C@@H](C)O)[C@@H](C)O)[C@@H](C)CC)[C@@H](C)CC)C(=O)N[C@@H](C)C(=O)N[C@@H](Cc1ccccc1)C(=O)N[C@H](C(=O)N[C@@H](CCC(N)=O)C(=O)N[C@@H](Cc1c[nH]c2ccccc12)C(=O)N[C@@H](CC(C)C)C(=O)N[C@H](C(=O)N[C@@H](C)C(=O)NCC(=O)NCC(=O)N1CCC[C@H]1C(=O)N[C@@H](CO)C(=O)N[C@@H](CO)C(=O)NCC(=O)N[C@@H](C)C(=O)N1CCC[C@H]1C(=O)N1CCC[C@H]1C(=O)N1CCC[C@H]1C(=O)N[C@@H](CO)C(N)=O)[C@@H](C)CC)C(C)C)C(=O)O [ID NO: 18]	0.00902	8.33
CCCCCCCCCCCCCCCC(=O)N[C@@H](CCC(=O)NCCCC[C@H](NC(=O)[C@H](CCC(N)=O)NC(=O)[C@H](C)NC(=O)[C@@H](NC(=O)[C@H](CCCCN)NC(=O)[C@H](CC(=O)O)NC(=O)[C@H](CC(C)C)NC(=O)C1(NC(=O)[C@@H](NC(=O)[C@H](CO)NC(=O)[C@H](Cc2ccc(O)cc2)NC(=O)[C@H](CC(=O)O)NC(=O)[C@H](CO)NC(=O)[C@@H](NC(=O)[C@H](Cc2ccccc2)NC(=O)[C@@H](NC(=O)CNC(=O)[C@H](CCC(=O)O)NC(=O)C(C)(C)NC(=O)[C@@H](N)Cc2ccc(O)cc2)[C@@H](C)O)[C@@H](C)O)[C@@H](C)CC)CCC1)[C@@H](C)CC)C(=O)N[C@@H](C)C(=O)N[C@@H](Cc1ccccc1)C(=O)N[C@H](C(=O)N[C@@H](CCC(N)=O)C(=O)N[C@@H](Cc1c[nH]c2ccccc12)C(=O)N[C@@H](CC(C)C)C(=O)N[C@H](C(=O)N[C@@H](C)C(=O)NCC(=O)NCC(=O)N1CCC[C@H]1C(=O)N[C@@H](CO)C(=O)N[C@@H](CO)C(=O)NCC(=O)N[C@@H](C)C(=O)N1CCC[C@H]1C(=O)N1CCC[C@H]1C(=O)N1CCC[C@H]1C(=O)N[C@@H](CO)C(N)=O)[C@@H](C)CC)C(C)C)C(=O)O [ID NO: 19]	0.0119	7.91
CCCCCCCCCCCCCCCC(=O)N[C@@H](CCC(=O)NCCCC[C@H](NC(=O)[C@H](CCC(N)=O)NC(=O)[C@H](C)NC(=O)[C@@H](NC(=O)[C@H](CCCCN)NC(=O)[C@H](CC(=O)O)NC(=O)[C@H](CC(C)C)NC(=O)C(C)(C)NC(=O)[C@@H](NC(=O)[C@H](CO)NC(=O)[C@H](Cc1ccc(O)cc1)NC(=O)[C@H](CC(=O)O)NC(=O)[C@H](CO)NC(=O)[C@@H](NC(=O)[C@H](Cc1ccccc1)NC(=O)[C@@H](NC(=O)CNC(=O)[C@H](CCC(=O)O)NC(=O)C1(NC(=O)[C@@H](N)Cc2ccc(O)cc2)CCCC1)[C@@H](C)O)[C@@H](C)O)[C@@H](C)CC)[C@@H](C)CC)C(=O)N[C@@H](C)C(=O)N[C@@H](Cc1ccccc1)C(=O)N[C@H](C(=O)N[C@@H](CCC(N)=O)C(=O)N[C@@H](Cc1c[nH]c2ccccc12)C(=O)N[C@@H](CC(C)C)C(=O)N[C@H](C(=O)N[C@@H](C)C(=O)NCC(=O)NCC(=O)N1CCC[C@H]1C(=O)N[C@@H](CO)C(=O)N[C@@H](CO)C(=O)NCC(=O)N[C@@H](C)C(=O)N1CCC[C@H]1C(=O)N1CCC[C@H]1C(=O)N1CCC[C@H]1C(=O)N[C@@H](CO)C(N)=O)[C@@H](C)CC)C(C)C)C(=O)O [ID NO: 20]	0.0159	5.91
CCCCCCCCCCCCCCCC(=O)N[C@@H](CCC(=O)NCCCC[C@H](NC(=O)[C@H](CCC(N)=O)NC(=O)[C@H](C)NC(=O)[C@@H](NC(=O)[C@H](CCCCN)NC(=O)[C@H](CC(=O)O)NC(=O)[C@H](CC(C)C)NC(=O)C1(NC(=O)[C@@H](NC(=O)[C@H](CO)NC(=O)[C@H](Cc2ccc(O)cc2)NC(=O)[C@H](CC(=O)O)NC(=O)[C@H](CO)NC(=O)[C@@H](NC(=O)[C@H](Cc2ccccc2)NC(=O)[C@@H](NC(=O)CNC(=O)[C@H](CCC(=O)O)NC(=O)C(C)(C)NC(=O)[C@@H](N)Cc2ccc(O)cc2)[C@@H](C)O)[C@@H](C)O)[C@@H](C)CC)CCCC1)[C@@H](C)CC)C(=O)N[C@@H](C)C(=O)N[C@@H](Cc1ccccc1)C(=O)N[C@H](C(=O)N[C@@H](CCC(N)=O)C(=O)N[C@@H](Cc1c[nH]c2ccccc12)C(=O)N[C@@H](CC(C)C)C(=O)N[C@H](C(=O)N[C@@H](C)C(=O)NCC(=O)NCC(=O)N1CCC[C@H]1C(=O)N[C@@H](CO)C(=O)N[C@@H](CO)C(=O)NCC(=O)N[C@@H](C)C(=O)N1CCC[C@H]1C(=O)N1CCC[C@H]1C(=O)N1CCC[C@H]1C(=O)N[C@@H](CO)C(N)=O)[C@@H](C)CC)C(C)C)C(=O)O [ID NO: 21]	0.0178	8.07
